Experimental data from article PMC7972453, “The allosteric modulation of complement C5 by knob domain peptides” (eLife, 2021).
Entries after “also recorded” stand apart in the source; their conditions may differ. Bridges are numbered along the chain shown (N, C = ends). Where no end group is shown, it is not given here.

Assays:
[1] = system: classical pathway mediated C5a release (complement C5); assay: Inhibition of classical pathway mediated C5a release (ELISA); assay type: biochemical, human; conditions: n=3 (K8: n=5), ND* = Not detected
Experimental: For the C5b ELISA, assays were run using the CP and AP Complement functional ELISA kits (Svar Life Science, Malmö, Sweden). For sample preparation, serum was diluted as per the respective protocol for the CP and AP assays. Serial dilutions of peptides were prepared and allowed to incubate with serum for 15 min at room temperature prior to plating.
For the C5a ELISA, assays were run using the Complement C5a Human ELISA Kit (Invitrogen, Renfrew, UK). For sample preparation, at the end of the 37°C incubation of the serum/peptide samples on the C5b ELISA plate, 50 µL of the diluted, activated serum was transferred to a C5a ELISA plate containing 50 µL/well of assay buffer. All subsequent experimental steps were performed as described in the protocol.
Table 1.3. Inhibition of classical pathway mediated C5a release.
Data from n=3 independent titrations, unless otherwise stated

[2] = system: alternative pathway C5b deposition (complement C5); assay: Alternative pathway C5b deposition ELISA; assay type: biochemical, human; conditions: n=3 (K8: n=5; K92: n=4), ND* = Not detected
Description: Figure 1. Functional modulation of C5 via knob domain peptides. […] Following activation of C1q via antibody Fc, C4 and C2 are cleaved and form C4bC2a (the CP C3 convertase) which cleaves C3 into C3a (not shown) and C3b. At high C3b concentrations, C4bC2aC3b (the CP […]) forms and cleaves C5 into C5a and C5b. C5b associates with C6 and forms the membrane attack complex (MAC) with C7, C8, and multiple copies of C9. […] In the presence of factor B and factor D, C3bBb (the AP C3 convertase) generates additional C3b, prompting formation of C3bBbC3b (the AP C5 convertase), which cleaves C5 into C5a and C5b, driving MAC formation. CP-driven ELISAs (C) and AP-driven ELISAs (D) are shown. For both pathways, the inhibition of C3d (the surface-associated domain of C3b, which is upstream of C5 inhibition), C5a release, and C5b neo-epitope formation and C9 deposition were tracked within the MAC. […] For the AP assays, 5% serum (v/v) gives a putative C5 concentration of 20 nM. For the CP assays, 1% serum (v/v) gives a putative C5 concentration of 4 nM, based on a reported C5 serum concentration of 397 nM/75 µg/mL ([Sjöholm, 1975]).
For the C5b ELISA, assays were run using the CP and AP Complement functional ELISA kits (Svar Life Science, Malmö, Sweden). For sample preparation, serum was diluted as per the respective protocol for the CP and AP assays. […]

human C5 = target: T1, human C5 (Homo sapiens, UniProt P01031); assay: SPR cross blocking; assay type: binding; conditions: HBS-EP, qualitative
T1 construct: tissue TCS Biosciences (serum); host or cells: human serum
T1 sequence (P01031 678-1676 limits assumed): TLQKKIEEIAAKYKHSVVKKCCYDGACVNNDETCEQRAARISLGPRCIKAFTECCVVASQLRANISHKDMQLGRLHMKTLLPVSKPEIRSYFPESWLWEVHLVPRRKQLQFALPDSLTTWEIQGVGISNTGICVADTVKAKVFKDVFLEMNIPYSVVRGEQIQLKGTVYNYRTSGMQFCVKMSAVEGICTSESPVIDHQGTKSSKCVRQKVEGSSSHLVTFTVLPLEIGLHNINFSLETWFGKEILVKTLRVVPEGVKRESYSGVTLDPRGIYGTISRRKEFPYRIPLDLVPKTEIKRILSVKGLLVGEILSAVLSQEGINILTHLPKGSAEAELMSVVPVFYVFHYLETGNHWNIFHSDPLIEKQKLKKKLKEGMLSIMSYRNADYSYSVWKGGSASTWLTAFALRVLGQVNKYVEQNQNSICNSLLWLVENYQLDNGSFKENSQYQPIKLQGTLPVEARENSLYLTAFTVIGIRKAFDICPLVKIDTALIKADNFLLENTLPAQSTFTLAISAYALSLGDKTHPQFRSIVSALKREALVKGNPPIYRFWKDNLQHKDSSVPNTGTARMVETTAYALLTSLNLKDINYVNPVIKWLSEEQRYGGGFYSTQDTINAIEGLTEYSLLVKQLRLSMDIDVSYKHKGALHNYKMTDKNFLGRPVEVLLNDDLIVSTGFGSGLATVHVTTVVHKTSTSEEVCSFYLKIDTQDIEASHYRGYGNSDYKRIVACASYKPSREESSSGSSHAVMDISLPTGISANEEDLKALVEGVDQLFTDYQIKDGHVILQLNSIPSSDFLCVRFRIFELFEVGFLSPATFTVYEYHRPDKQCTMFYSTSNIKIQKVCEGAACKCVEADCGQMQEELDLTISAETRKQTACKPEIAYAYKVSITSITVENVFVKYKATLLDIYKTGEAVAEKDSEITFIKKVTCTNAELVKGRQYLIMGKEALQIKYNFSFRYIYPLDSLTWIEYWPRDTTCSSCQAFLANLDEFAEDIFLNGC
T1 sequence (P01031 19-673 limits assumed): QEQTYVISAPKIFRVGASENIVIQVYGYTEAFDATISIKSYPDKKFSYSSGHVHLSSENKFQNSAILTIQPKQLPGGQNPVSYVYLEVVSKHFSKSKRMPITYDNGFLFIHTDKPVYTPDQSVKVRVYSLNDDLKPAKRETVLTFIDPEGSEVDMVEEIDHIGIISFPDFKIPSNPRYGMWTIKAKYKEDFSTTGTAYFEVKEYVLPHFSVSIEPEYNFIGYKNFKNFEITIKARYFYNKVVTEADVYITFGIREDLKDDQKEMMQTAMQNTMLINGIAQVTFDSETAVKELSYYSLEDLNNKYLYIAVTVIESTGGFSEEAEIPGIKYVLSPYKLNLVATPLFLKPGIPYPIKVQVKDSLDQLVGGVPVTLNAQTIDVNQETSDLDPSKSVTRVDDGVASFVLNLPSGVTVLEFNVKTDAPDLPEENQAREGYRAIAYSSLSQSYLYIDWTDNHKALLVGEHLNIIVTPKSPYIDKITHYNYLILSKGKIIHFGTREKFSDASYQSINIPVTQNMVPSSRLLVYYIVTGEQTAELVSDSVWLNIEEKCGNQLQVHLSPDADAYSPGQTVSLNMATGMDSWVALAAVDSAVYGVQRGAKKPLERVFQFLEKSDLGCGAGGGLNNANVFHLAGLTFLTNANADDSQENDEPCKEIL
Experimental: To test for cross blocking, arising from overlapping epitopes, or cooperativity between knob domains, we performed a surface plasmon resonance (SPR) cross blocking experiment, where, using a Biacore 8K, we saturated a C5-coated sensor chip with two 20 µM injections of knob domain peptide before injecting a different peptide at 20 µM to assess its capacity to bind. This provides a qualitative measure of cross blocking, whereby an increase in response units (RUs) indicates ternary complex formation, stoichiometries, or kinetics cannot be reliably derived with concurrent dissociation of both peptides (Figure 2).
On a Biacore 8K (GE Healthcare, Amersham, UK), human C5 was amine coupled to a CM5 chip using the same protocol as for C5b. A final immobilisation level of approximately 1000–2000 RUs was obtained. For cross blocking, the surface was saturated with two sequential injections of a 20 µM knob domain solution in HBS-EP buffer (GE Healthcare, Amersham, UK) using a flow rate of 30 µL/min and contact time of 300 s. This was immediately followed with an injection of a second knob domain peptide, again at 20 µM in HBS-EP, with a flow rate of 30 µL/min and a contact time of 270 s, and the dissociation phase was measured for 600 s. […]

[3] = system: alternative pathway mediated C9 deposition; assay: Inhibition of alternative pathway mediated C9 deposition (ELISA); assay type: biochemical, human; conditions: 5% serum, n=3, ND* = Not detected
Experimental: For the C3 and C9 ELISAs, microtiter plates (MaxiSorp; Nunc) were incubated overnight at 4°C with 50 µL of a solution of in 75 mM sodium carbonate (pH 9.6) containing either 2.5 µg/mL aggregated human IgG (Sigma-Aldrich, Gillingham, UK) for CP or 20 µg/mL zymosan (Sigma-Aldrich, Gillingham, UK) for AP. As a negative control, wells were coated with 1% (w/v) bovine serum albumin (BSA)/PBS. Microtiter plates were washed four times with 250 µL of wash buffer (50 mM Tris-HCl), 150 mM NaCl and 0.1% Tween 20 (pH 8) between each step of the procedure. Wells were blocked using 250 µL of 1% (w/v) BSA/PBS for 2 hr at room temperature. […] Complement activation was assessed through detection of deposited complement activation factors using specific antibodies against C3b (rat anti-human C3d HM2198, Hycult, Uden, The Netherlands) and C9 (goat anti-human C9, A226, Complement Technologies Tyler, TX) at a 1:1000 dilution. Bound primary antibodies were detected with […]-conjugated goat anti-rat (ab97057, Abcam, Cambridge, UK) or rabbit anti-goat (P0449, Agilent Dako, Santa Clara, CA) secondary antibodies at a 1:1000 dilution. Bound HRP-conjugated antibodies were detected using TMB One solution (Eco-TEK – manufactured by Bio-TEK, Winooski, VT) with absorbance measured at 450 nm. […]

For “SVCPDGFDWGYGCAAGSSRFCTRHDWCCYDERADSHTYGFCTGNRVENLYFQ (disulfide 3-28, 13-21, 27-41) [K8]”, the “Average Emax” value ([1]; CP C5a release) was 57.7%, the IC50 ([1]; CP, C5a Human ELISA kit (Invitrogen) on activated serum from C5b ELISA plate, read-out: Geomean IC50) was 9.9 nM and the “Average Emax” value ([2]; AP C5b ELISA, preincubated 15 min RT) was 91.8%. The IC50 ([2]; AP functional ELISA kit (Svar), peptide preincubated with human serum 15 min RT, AP 5% serum, putative 20 nM C5, read-out: Geomean IC50) was 29.2 nM, the “binding to C5 saturated with K57” value (human C5; two 20 µM injections of K57, then 20 µM second peptide) was “can bind, albeit at a lower level; also recorded: could still partially bind” and the “binding to C5 saturated with K92” value (human C5; two 20 µM injections of K92, then 20 µM second peptide) was “can bind, albeit at a lower level; also recorded: still able to bind, albeit to a lesser degree”. For the same sequence, the “Average Emax” value ([3]; AP C9 deposition) was 73.3% and the IC50 ([3]; AP, Mg-EGTA pH 7.3, zymosan plate, preincubated on ice 30 min, 60 min 37°C, read-out: Geomean IC50) was 232 nM.
